Experimental data: the NIST ThermoML archive (doi:10.1016/j.jct.2016.10.016)
± gives the expanded uncertainty stated by the source.

Assay: mn = molality of the nth substance listed, in mol/kg
Details: 101.3 kPa, Liquid

COC(=O)[C@H](C)N.Cl [methyl L-alaninate hydrochloride] + O
Details | speed of sound [m/s]
278.15 K, Frequency=2 MHz, Linear variable-path acoustic interferometer, m1 = 0.0501 | 1432 ± 2
278.15 K, Frequency=2 MHz, Linear variable-path acoustic interferometer, m1 = 0.0614 | 1432.9 ± 2
278.15 K, Frequency=2 MHz, Linear variable-path acoustic interferometer, m1 = 0.0701 | 1433.8 ± 2
278.15 K, Frequency=2 MHz, Linear variable-path acoustic interferometer, m1 = 0.082 | 1435.4 ± 2
278.15 K, Frequency=2 MHz, Linear variable-path acoustic interferometer, m1 = 0.091 | 1437.2 ± 2
278.15 K, Frequency=2 MHz, Linear variable-path acoustic interferometer, m1 = 0.1004 | 1437.6 ± 2
278.15 K, Frequency=2 MHz, Linear variable-path acoustic interferometer, m1 = 0.1099 | 1438.9 ± 2
278.15 K, Frequency=2 MHz, Linear variable-path acoustic interferometer, m1 = 0.1219 | 1440 ± 2
278.15 K, Frequency=2 MHz, Linear variable-path acoustic interferometer, m1 = 0.1296 | 1441.4 ± 2
278.15 K, Frequency=2 MHz, Linear variable-path acoustic interferometer, m1 = 0.1411 | 1442.6 ± 2
278.15 K, Frequency=2 MHz, Linear variable-path acoustic interferometer, m1 = 0.1515 | 1443.6 ± 2
278.15 K, Frequency=2 MHz, Linear variable-path acoustic interferometer, m1 = 0.1618 | 1444.4 ± 2
288.15 K, Frequency=3 MHz, Sing-around technique in a fixed-path interferometer, m1 = 0.0502 | 1470.7 ± 1.2
288.15 K, Frequency=3 MHz, Sing-around technique in a fixed-path interferometer, m1 = 0.0601 | 1471.8 ± 1.2
288.15 K, Frequency=3 MHz, Sing-around technique in a fixed-path interferometer, m1 = 0.07 | 1473.1 ± 1.2
288.15 K, Frequency=3 MHz, Sing-around technique in a fixed-path interferometer, m1 = 0.0801 | 1474.1 ± 1.2
288.15 K, Frequency=3 MHz, Sing-around technique in a fixed-path interferometer, m1 = 0.0901 | 1475.2 ± 1.2
288.15 K, Frequency=3 MHz, Sing-around technique in a fixed-path interferometer, m1 = 0.1003 | 1476.3 ± 1.2
288.15 K, Frequency=3 MHz, Sing-around technique in a fixed-path interferometer, m1 = 0.1101 | 1477.1 ± 1.2
288.15 K, Frequency=3 MHz, Sing-around technique in a fixed-path interferometer, m1 = 0.1202 | 1477.8 ± 1.2
288.15 K, Frequency=3 MHz, Sing-around technique in a fixed-path interferometer, m1 = 0.13 | 1478.9 ± 1.3
288.15 K, Frequency=3 MHz, Sing-around technique in a fixed-path interferometer, m1 = 0.1401 | 1480 ± 1.3
288.15 K, Frequency=3 MHz, Sing-around technique in a fixed-path interferometer, m1 = 0.1504 | 1481.1 ± 1.3
288.15 K, Frequency=3 MHz, Sing-around technique in a fixed-path interferometer, m1 = 0.1603 | 1482.2 ± 1.3
298.15 K, Frequency=3 MHz, Sing-around technique in a fixed-path interferometer, m1 = 0.0486 | 1500.6 ± 1.2
298.15 K, Frequency=3 MHz, Sing-around technique in a fixed-path interferometer, m1 = 0.0601 | 1502.2 ± 1.2
298.15 K, Frequency=3 MHz, Sing-around technique in a fixed-path interferometer, m1 = 0.0697 | 1503 ± 1.2
298.15 K, Frequency=3 MHz, Sing-around technique in a fixed-path interferometer, m1 = 0.0819 | 1503.6 ± 1.2
298.15 K, Frequency=3 MHz, Sing-around technique in a fixed-path interferometer, m1 = 0.0899 | 1504.7 ± 1.2
298.15 K, Frequency=3 MHz, Sing-around technique in a fixed-path interferometer, m1 = 0.0963 | 1505.2 ± 1.2
298.15 K, Frequency=3 MHz, Sing-around technique in a fixed-path interferometer, m1 = 0.11 | 1506.4 ± 1.2
298.15 K, Frequency=3 MHz, Sing-around technique in a fixed-path interferometer, m1 = 0.1184 | 1507.1 ± 1.2
298.15 K, Frequency=3 MHz, Sing-around technique in a fixed-path interferometer, m1 = 0.1302 | 1508 ± 1.2
298.15 K, Frequency=3 MHz, Sing-around technique in a fixed-path interferometer, m1 = 0.1401 | 1508.9 ± 1.3
298.15 K, Frequency=3 MHz, Sing-around technique in a fixed-path interferometer, m1 = 0.1507 | 1509.8 ± 1.2
298.15 K, Frequency=3 MHz, Sing-around technique in a fixed-path interferometer, m1 = 0.1601 | 1510.3 ± 1.2

Details | mass density [kg/m3]
278.15 K, Pycnometric method, m1 = 0.0501 | 1001.79 ± 0.28
278.15 K, Pycnometric method, m1 = 0.0614 | 1002.2 ± 0.28
278.15 K, Pycnometric method, m1 = 0.0701 | 1002.52 ± 0.28
278.15 K, Pycnometric method, m1 = 0.082 | 1002.95 ± 0.28
278.15 K, Pycnometric method, m1 = 0.091 | 1003.28 ± 0.29
278.15 K, Pycnometric method, m1 = 0.1004 | 1003.62 ± 0.29
278.15 K, Pycnometric method, m1 = 0.1099 | 1003.97 ± 0.29
278.15 K, Pycnometric method, m1 = 0.1219 | 1004.4 ± 0.29
278.15 K, Pycnometric method, m1 = 0.1296 | 1004.68 ± 0.3
278.15 K, Pycnometric method, m1 = 0.1411 | 1005.1 ± 0.3
278.15 K, Pycnometric method, m1 = 0.1515 | 1005.48 ± 0.3
278.15 K, Pycnometric method, m1 = 0.1618 | 1005.86 ± 0.3
288.15 K, Vibrating tube method, m1 = 0.0502 | 1000.8 ± 0.11
288.15 K, Vibrating tube method, m1 = 0.0601 | 1001.13 ± 0.11
288.15 K, Vibrating tube method, m1 = 0.07 | 1001.47 ± 0.12
288.15 K, Vibrating tube method, m1 = 0.0801 | 1001.8 ± 0.12
288.15 K, Vibrating tube method, m1 = 0.0901 | 1002.14 ± 0.12
288.15 K, Vibrating tube method, m1 = 0.1003 | 1002.49 ± 0.13
288.15 K, Vibrating tube method, m1 = 0.1101 | 1002.82 ± 0.13
288.15 K, Vibrating tube method, m1 = 0.1202 | 1003.16 ± 0.13
288.15 K, Vibrating tube method, m1 = 0.13 | 1003.49 ± 0.14
288.15 K, Vibrating tube method, m1 = 0.1401 | 1003.83 ± 0.14
288.15 K, Vibrating tube method, m1 = 0.1504 | 1004.18 ± 0.15
288.15 K, Vibrating tube method, m1 = 0.1603 | 1004.51 ± 0.15
298.15 K, Vibrating tube method, m1 = 0.0486 | 998.75 ± 0.11
298.15 K, Vibrating tube method, m1 = 0.0601 | 999.01 ± 0.11
298.15 K, Vibrating tube method, m1 = 0.0697 | 999.32 ± 0.11
298.15 K, Vibrating tube method, m1 = 0.0819 | 999.68 ± 0.12
298.15 K, Vibrating tube method, m1 = 0.0899 | 999.97 ± 0.12
298.15 K, Vibrating tube method, m1 = 0.0963 | 1000.19 ± 0.12
298.15 K, Vibrating tube method, m1 = 0.11 | 1000.61 ± 0.13
298.15 K, Vibrating tube method, m1 = 0.1184 | 1000.89 ± 0.13
298.15 K, Vibrating tube method, m1 = 0.1302 | 1001.2 ± 0.13
298.15 K, Vibrating tube method, m1 = 0.1401 | 1001.54 ± 0.15
298.15 K, Vibrating tube method, m1 = 0.1507 | 1001.93 ± 0.14
298.15 K, Vibrating tube method, m1 = 0.1601 | 1002.17 ± 0.13
